# In ChEMBL document CHEMBL1155140, “Differentially expressed proteins in derivatives of Candida albicans displaying a stable histatin 3-resistant phenotype” (2007):
# Calls of active or inactive are those of the source. No cut-off for these calls is given here.
# Tests used:
# Candida albicans [1] = assay: Reduction of TRK1 gene expression in histatin-resistant Candida albicans CAHR04A; type: functional
# Candida albicans [2] = assay: Reduction of TRK1 gene expression in histatin-resistant Candida albicans CAHR04B; type: functional
# Candida albicans [3] = assay: Reduction of ATP release in histatin-resistant Candida albicans CAHR04B at 0.2 mg/mL after 45 mins
# Candida albicans [4] = assay: Antifungal activity against histatin-resistant Candida albicans CAHR04A at 0.2 mg/mL; type: functional
# Candida albicans [5] = assay: Antifungal activity against histatin-resistant Candida albicans CAHR1 at 0.2 mg/mL measured after storage at -80 degC for 1 year; type: functional
# Candida albicans [6] = assay: Antifungal activity against histatin-resistant Candida albicans CAHR04B at 0.2 mg/mL; type: functional
# Candida albicans [7] = assay: Antifungal activity against histatin-susceptible Candida albicans CA132A at 0.2 mg/mL; type: functional
# Candida albicans [8] = assay: Reduction of ATP release in histatin-resistant Candida albicans CAHR04U at 0.2 mg/mL after 45 mins
# Candida albicans [9] = assay: Antifungal activity against histatin-resistant Candida albicans CAHR04U at 0.2 mg/mL; type: functional
# Candida albicans [10] = assay: Reduction of ATP release in histatin-resistant Candida albicans CAHR04A at 0.2 mg/mL after 45 mins
# Candida albicans [11] = assay: Antifungal activity against histatin-resistant Candida albicans CAHR4 at 0.2 mg/mL measured after storage at -80 degC for 1 year; type: functional
smiles,measurement,setting,value
CC(C)C[C@H](NC(=O)[C@H](Cc1ccc(O)cc1)NC(=O)[C@H](CC(N)=O)NC(=O)[C@H](CO)NC(=O)[C@H](CCCNC(=N)N)NC(=O)[C@H](Cc1ccc(O)cc1)NC(=O)CNC(=O)[C@H](CCCNC(=N)N)NC(=O)[C@H](Cc1cnc[nH]1)NC(=O)[C@H](CO)NC(=O)[C@H](Cc1cnc[nH]1)NC(=O)[C@H](Cc1cnc[nH]1)NC(=O)[C@H](CCCCN)NC(=O)[C@H](CCC(=O)O)NC(=O)[C@H](Cc1cnc[nH]1)NC(=O)[C@H](Cc1ccccc1)NC(=O)[C@H](CCCCN)NC(=O)[C@H](CCCNC(=N)N)NC(=O)[C@H](CCCCN)NC(=O)[C@H](Cc1ccc(O)cc1)NC(=O)CNC(=O)[C@H](Cc1cnc[nH]1)NC(=O)[C@H](Cc1cnc[nH]1)NC(=O)[C@H](CCCNC(=N)N)NC(=O)[C@H](CCCCN)NC(=O)[C@H](C)NC(=O)[C@H](Cc1cnc[nH]1)NC(=O)[C@H](CO)NC(=O)[C@@H](N)CC(=O)O)C(=O)N[C@@H](Cc1ccc(O)cc1)C(=O)N[C@@H](CC(=O)O)C(=O)N[C@@H](CC(N)=O)C(=O)O [Histatin 3],Activity,Candida albicans [1],Active
same,fold change (FC),Candida albicans [1],2
same,fold change (FC),Candida albicans [2],1.6
same,Activity,Candida albicans [3],Active
same,Activity,Candida albicans [4],17.9%
same,Activity,Candida albicans [5],86.4%
same,Activity,Candida albicans [6],17.9%
same,Activity,Candida albicans [7],91.7%
same,Activity,Candida albicans [8],Active
same,Activity,Candida albicans [9],17.9%
same,Activity,Candida albicans [10],Active
same,Activity,Candida albicans [11],94.4%
